We go through 85 compounds from ChEMBL document CHEMBL1139128, “Structure-activity relationship analysis of a novel necroptosis inhibitor, Necrostatin-5” (Bioorg Med Chem Lett, 2007).

Active and inactive are the calls of the source. The rule behind the calls is not given here.

The experiment deals with Jurkat. The experiment can be described thus: Inhibition of TNF-alpha-induced necroptosis in FADD-deficient Jurkat T cells. The class given is functional, cell-based. Also noted: concentration or dose not given beside the values. The following applies: for EC50: Jurkat.

Broadly, the EC50 is the concentration needed to bring the measured effect to its halfway point.

As for `CCOc1ccc(-n2c(SC)nc3sc4ccccc4c3c2=O)cc1`, the result (Homo sapiens) was inactive.
Turning to `C#CCSc1nc2sc3c(c2c(=O)n1-c1ccc(OC)cc1)CCCC3`, the Activity is 80.7%. In addition, under “Homo sapiens”, the EC50 was determined as 6080 nM.
Consider `COc1ccc(-n2c(SCc3ccccc3)nc3sc4c(c3c2=O)CCC4)cc1`, for which the outcome (Homo sapiens) was inactive.
The same measure, in the same setting: in the case of `C=CCSc1nc2sc3c(c2c(=O)n1-c1ccc(OC)cc1)CCC3` it was “inactive”.
Regarding `CSc1nc2sc3c(c2c(=O)n1-c1ccc(OC(F)(F)F)cc1)CCCC3`, the outcome (Homo sapiens) was inactive.
Same read-out and setting: in the case of `CSc1nc2sc(C)c(C)c2c(=O)n1-c1ccc(OC(F)(F)F)cc1` it was “inactive”.
In turn, `Cc1ccc(-n2c(SCC#N)nc3sc4c(c3c2=O)CCCC4)cc1C` displayed an Activity of 45%. The compound further displayed an EC50 (Homo sapiens) of 16700 nM.
Regarding `CSc1nc2sc3c(c2c(=O)n1-c1ccc(F)cc1)CCCCC3`, the result (Homo sapiens) was inactive.
For `C#CCSc1nc2scc(C)c2c(=O)n1-c1ccc(OC)cc1`, the result (Homo sapiens) was inactive.
In turn, `CSc1nc2sc3c(c2c(=O)n1-c1ccc(F)cc1)CCCC3` registered an Activity of 61.2%. The compound also displayed an EC50 (Homo sapiens) of 1570 nM.
As for `CCCCSc1nc2sc3c(c2c(=O)n1-c1ccc(OC)cc1)CCC3`, the outcome (Homo sapiens) was inactive.
Turning to `COc1ccc(-n2c(SCCO)nc3sc4c(c3c2=O)CCC4)cc1`, the Activity was found to be 100%. The compound also returned an EC50 (Homo sapiens) of 7140 nM.
Consider `COc1ccc(-n2c(SC)nc3sccc3c2=O)cc1`, for which the result (Homo sapiens) was inactive.
Still for that read-out and setting: to `CCCSc1nc2sc3c(c2c(=O)n1-c1ccc(OC)cc1)CCC3` belongs “inactive”; to `CSc1nc2sc3c(c2c(=O)n1-c1ccc(OC(F)(F)F)cc1)CCC3`, “inactive”.
On the same count and under the same terms, to `CCc1sc2nc(SC)n(-c3ccc(OC)cc3)c(=O)c2c1C` belongs “inactive”.
Take `Cc1sc2nc(SCC#N)n(-c3ccc(OC(F)(F)F)cc3)c(=O)c2c1C`: the Activity turned out to be 63%. Besides, under “Homo sapiens”, a half-maximal effect (EC50) was put at 3700 nM.
For `COc1ccc(-n2c(SCc3ccc(C)cc3)nc3sc4c(c3c2=O)CCCC4)cc1`, the outcome (Homo sapiens) was inactive.
On the same count and under the same terms, in the case of `CCN1CCc2sc3nc(SC)n(-c4ccc(OC)cc4)c(=O)c3c2C1` it was “inactive”; in that of `C=CCSc1nc2sc3c(c2c(=O)n1-c1ccc(OC)cc1)CCCC3`, “inactive”.
Turning to `O=c1c2c3c(sc2nc(SCc2ccccc2)n1-c1ccccc1)CCCC3`, the outcome (Homo sapiens) was inactive.
As for `CCc1sc2nc(SC)n(-c3ccc(F)cc3)c(=O)c2c1C`, the result (Homo sapiens) was inactive.
As to `O=c1c2c3c(sc2nc(SCc2ccc([N+](=O)[O-])cc2)n1-c1ccccc1)CCCC3`, the result (Homo sapiens) was inactive.
`COc1ccc(-n2c(SCC#N)nc3sc4c(c3c2=O)CCC4)cc1` gave an Activity of 100%. For the same compound, the 50% effective concentration (EC50) (Homo sapiens) is 450 nM.
As for `COc1ccc(-n2c(SC)nc3scc(C)c3c2=O)cc1`, the outcome (Homo sapiens) was inactive.
On to `COc1ccccc1-n1c(SCC#N)nc2sc3c(c2c1=O)CCCC3`, for which the Activity was determined as 51.2%. Further, the EC50 (Homo sapiens) was 17800 nM.
For the compound `N#CCSc1nc2sc3ccccc3c2c(=O)n1-c1ccc(F)cc1`, the 50% effective concentration (EC50) (Homo sapiens) was 3060 nM.
`N#CCSc1nc2sc3c(c2c(=O)n1-c1ccc2c(c1)OCO2)CCC3` came in with an Activity of 100%. The compound further displayed an EC50 (Homo sapiens) of 1180 nM.
In the case of `N#CCSc1nc2sc3c(c2c(=O)n1-c1ccccc1)CCC3`, the outcome (Homo sapiens) was inactive.
On the same count and under the same terms, to `COc1ccc(-n2c(SC)nc3sc4c(c3c2=O)CC(C)CC4)cc1OC` (stereo not drawn) belongs “inactive”; to `COc1ccc(-n2c(SC)nc3sc(C(C)C)c(C)c3c2=O)cc1`, “inactive”.
For the compound `COc1ccc(-n2c(SCc3ccccc3)nc3sc4c(c3c2=O)CCCC4)cc1`, the result (Homo sapiens) was inactive.
As for `N#CCSc1nc2sc3c(c2c(=O)n1-c1ccc2c(c1)OCO2)CCCC3`, the Activity was determined as 100%. In addition, the 50% effective concentration (EC50) (Homo sapiens) stood at 890 nM.
The like results for `Cc1ccc(-n2c(SCC#N)nc3sc4c(c3c2=O)CC(C)CC4)cc1C` (stereo not drawn) were, in that order, 38% and 16700 nM.
As to `N#CCSc1nc2sc3c(c2c(=O)n1-c1ccc(Cl)c(Cl)c1)CCCC3`, the Activity came out at 39%. The midpoint of the response (Homo sapiens), the EC50, lay at 5700 nM.
Regarding `COc1cccc(-n2c(SCC#N)nc3sc4c(c3c2=O)CCCC4)c1`, the Activity was found to be 87.7%. For the same compound, for the setting “Homo sapiens”, the EC50 is 1460 nM.
`N#CCSc1nc2sc3c(c2c(=O)n1-c1ccccc1)CCCC3`: the outcome (Homo sapiens) was inactive.
In the case of `COc1ccc(-n2c(SCC#N)nc3sc(C(C)C)c(C)c3c2=O)cc1`, the result (Homo sapiens) was inactive.
Turning to `COc1ccc(-n2c(SC[N+](=O)[O-])nc3sc4c(c3c2=O)CCC4)cc1`, the outcome (Homo sapiens) was inactive.
As for `CCCCCSc1nc2sc3c(c2c(=O)n1-c1ccc(OC)cc1)CCCC3`, the result (Homo sapiens) was inactive.
`CSc1nc2sc3c(c2c(=O)n1-c1ccc2c(c1)OCO2)CCCC3`: where the note is “Homo sapiens”, the result was inactive.
Same read-out and setting: to `CCCC(=O)Sc1nc2sc3c(c2c(=O)n1-c1ccc(OC)cc1)CCCC3` belongs “inactive”; to `N#CCSc1nc2sccc2c(=O)n1-c1ccccc1`, “inactive”.
In the case of `Cc1sc2nc(SCC#N)n(-c3ccc4c(c3)OCO4)c(=O)c2c1C`, the Activity amounted to 100%. This compound also displayed an EC50 (Homo sapiens) of 1650 nM.
In the same order, the values of `COc1ccc(-n2c(SCC#N)nc3sc4c(c3c2=O)CCCC4)cc1OC` are 57% and 5700 nM.
In the same order, the values of `N#CCSc1nc2sc3c(c2c(=O)n1-c1ccc(F)cc1)CCC3` are 88.7% and 890 nM.
In turn, `N#CCSc1nc2sc3c(c2c(=O)n1-c1ccc(OC(F)(F)F)cc1)CCC3` returned an Activity of 70%. Under “Homo sapiens”, this compound displayed an EC50 of 3700 nM.
As for `N#CCSc1nc2sc3c(c2c(=O)n1-c1ccc(OC(F)(F)F)cc1)CCCCC3`, the result (Homo sapiens) was inactive.
As for `CSc1nc2sc3c(c2c(=O)n1-c1ccc(Br)cc1)CCCC3`, the result (Homo sapiens) was inactive.
Take `CCCCCSc1nc2sc3c(c2c(=O)n1-c1ccc(OC)cc1)CCC3`: the result (Homo sapiens) was inactive.
Regarding `COc1ccc(-n2c(SC)nc3sc4c(c3c2=O)CCCCC4)cc1`, the result (Homo sapiens) was inactive.
For `C#CCSc1nc2sc(CC)c(C)c2c(=O)n1-c1ccc2c(c1)OCO2`, the result (Homo sapiens) was inactive.
The same measure, in the same setting: to `COc1ccc(-n2c(SCC#N)nc3sc4c(c3c2=O)CCC4)cc1OC` belongs “inactive”; to `COc1ccc(-n2c(SCc3ccc([N+](=O)[O-])cc3)nc3sc4c(c3c2=O)CCC4)cc1`, “inactive”; to `CSc1nc2sc3ccccc3c2c(=O)n1-c1ccc(OC(F)(F)F)cc1`, “inactive”.
In the case of `COc1ccc(-n2c(SC(=O)c3ccccc3)nc3sc4c(c3c2=O)CCCC4)cc1`, under “Homo sapiens”, the outcome was inactive.
The same measure, in the same setting: in the case of `COc1ccc(-n2c(SCC(=O)O)nc3sc4c(c3c2=O)CCCC4)cc1` it was “inactive”; in that of `COc1ccc(-n2c(SC[N+](=O)[O-])nc3sc4c(c3c2=O)CCCC4)cc1`, “inactive”; in that of `Cc1ccccc1-n1c(SCC#N)nc2sc3c(c2c1=O)CCCC3`, “inactive”.
Still for that read-out and setting: to `CCCc1sc2nc(SC)n(-c3ccc(OC)cc3)c(=O)c2c1C` belongs “inactive”.
Regarding `COc1ccc(-n2c(SCC#N)nc3sc(C)c(C)c3c2=O)cc1`, the Activity was found to be 100%. Where the note is “Homo sapiens”, the EC50 was determined as 450 nM.
For the compound `CCc1sc2nc(SCCO)n(-c3ccc(OC)cc3)c(=O)c2c1C`, the result (Homo sapiens) was inactive.
Still for that read-out and setting: to `COc1ccc(-n2c(S(C)(=O)=O)nc3sc4c(c3c2=O)CCCC4)cc1` belongs “inactive”.
Turning to `COc1ccc(-n2c(SC)nc3sc4c(c3c2=O)CCC4)cc1`, the Activity is reported as 97%. This compound yielded an EC50 (Homo sapiens) of 240 nM.
As to `CCSc1nc2sc(CC)c(C)c2c(=O)n1-c1ccc(OC)cc1`, the result (Homo sapiens) was inactive.
Same read-out and setting: to `COc1ccc(-n2c(SC)nc3sc4c(c3c2=O)CN(C(C)C)CC4)cc1` belongs “inactive”; to `CCCCSc1nc2sc3c(c2c(=O)n1-c1ccc(OC)cc1)CCCC3`, “inactive”.
Consider `CCc1c(C)sc2nc(SCC#N)n(-c3ccc4c(c3)OCO4)c(=O)c12`, for which the Activity amounted to 100%. Moreover, the EC50 (Homo sapiens) is 1900 nM.
Regarding `CSc1nc2sc(C)c(C)c2c(=O)n1-c1ccc(F)cc1`, the Activity was found to be 69.2%. In addition, a half-maximal effect (Homo sapiens) (EC50) was put at 2600 nM.
For `CCc1c(C)sc2nc(SCCO)n(-c3ccc4c(c3)OCO4)c(=O)c12`, the outcome (Homo sapiens) was inactive.
Regarding `N#CCSc1nc2sc3c(c2c(=O)n1-c1ccccc1)CCCCC3`, under “Homo sapiens”, the result was inactive.
For `CCOc1ccc(-n2c(SCC#N)nc3sc4c(c3c2=O)CCCC4)cc1`, the Activity is 83.8%. Where the note is “Homo sapiens”, this compound came in with an EC50 of 550 nM.
`COc1ccc(-n2c(SCC#N)nc3c(c2=O)C2CCCCCC2S3)cc1` (stereo not drawn) returned an Activity of 83%. The EC50 (Homo sapiens) worked out at 960 nM.
The like results for `COc1ccc(-n2c(SCC#N)nc3sc4c(c3c2=O)CCCC4)cc1` were, in that order, 100% and 240 nM.
For `N#CCSc1nc2sc3c(c2c(=O)n1-c1ccc(Br)cc1)CCCC3`, the outcome (Homo sapiens) was inactive.
The same measure, in the same setting: in the case of `CSc1nc2sc3ccccc3c2c(=O)n1-c1ccc2c(c1)OCO2` it was “inactive”; in that of `Cc1sc2nc(SCC#N)n(-c3ccc(N(C)C)cc3)c(=O)c2c1C`, “inactive”; in that of `CSc1nc2sc3c(c2c(=O)n1-c1ccc2c(c1)OCO2)CCC3`, “inactive”.
For the compound `COc1ccc(-n2c(SCC#N)nc3sc4c(c3c2=O)CC(C)CC4)cc1` (stereo not drawn), under “Homo sapiens”, the result was inactive.
On the same count and under the same terms, in the case of `COc1ccc(-n2c([S+](C)[O-])nc3sc4c(c3c2=O)CCCC4)cc1` (stereo not drawn) it was “inactive”; in that of `N#CCSc1nc2sc3c(c2c(=O)n1-c1ccc(F)cc1)CCCCC3`, “inactive”; in that of `CCSc1nc2sc3c(c2c(=O)n1-c1ccc(OC)cc1)CCCCC3`, “inactive”.
Consider `COc1ccc(-n2c(SCC(=O)O)nc3sc(C)c(C)c3c2=O)cc1`, for which the outcome (Homo sapiens) was inactive.
On the same count and under the same terms, in the case of `CSc1nc2sc(C)c(C)c2c(=O)n1-c1ccc(N(C)C)cc1` it was “inactive”.
As for `CCCc1sc2nc(SCCO)n(-c3ccc(OC)cc3)c(=O)c2c1C`, the result (Homo sapiens) was inactive.
